Reference: article PMC4872165, “Targeting human respiratory syncytial virus transcription anti-termination factor M2-1 to inhibit in vivo viral replication” (Scientific Reports, 2016)

Molecular target: T1, hRSV RNA-dependent RNA polymerase (RdRp) complex with M2-1 (L, P, N, M2-1 minigenome) (Human respiratory syncytial virus A2, UniProt P04545)
T1 construct: pN, pP, pL and pM2-1 plasmids (T7 promoter) in BSR-T7/5 (BHK-21) cells with pM/Luc minigenome; strain printed for the virus only, not for the plasmids; M2-1 tetrameric; with RNA-directed RNA polymerase L; Phosphoprotein; Nucleoprotein
Assay: hRSV minigenome luciferase reporter assay in transfected BSR-T7/[…] cells
Assay type: cell-based

T1 sequence (P04545 whole entry, looked up, one chain of several): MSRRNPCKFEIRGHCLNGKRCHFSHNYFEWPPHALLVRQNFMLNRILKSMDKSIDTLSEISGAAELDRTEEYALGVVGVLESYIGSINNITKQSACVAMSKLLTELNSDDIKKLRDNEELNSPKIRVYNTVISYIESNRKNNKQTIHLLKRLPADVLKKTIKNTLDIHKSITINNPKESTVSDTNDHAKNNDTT

Structure (SMILES): CC1=C2C[C@H]3[C@@H](CC=C4C[C@@H](O)CC[C@@]43C)[C@@H]2CC[C@]12O[C@@H]1C[C@H](C)CN[C@H]1[C@H]2C [cyclopamine]
- IC50: 380 nM
